Data on 2 substances can be found in patent US10973896B2, “Treatment or prevention of melanoma using photochemical internalization of a melanoma antigen” (PCI Biotech AS, priority 2014, dated 2021).

One data set deals with bone marrow DCs. Nature of the data set: Fluorescence microscopy of cytosolic antigen release in dendritic cells. It counts as cell-based, C57BL/6 mice. The following applies: incubated with TPCS2a and Alexa488-labelled OVA. How it is done: Cells (J774.1 (ATCC no. TIB-67 mouse monocyte macrophage cell line) or bone marrow DCs from C57BL/6 mice) were incubated with 0.05 or 1.0 μg/ml TPCS2a and 25 μg/ml OVA-Alexa488 for 18 hours and washed three times in drug-free culture medium prior to incubation for four hours before light activation (3 min LumiSource exposure). The cells were subsequently washed in ice-cold PBS with Ca^2+ and Mg^2+ prior to microscopy. Images of cellular localization and PCI-induced cytosolic release of OVA were obtained by epi-fluorescence microscopy using a Plan-Apochromat 63×/1.40 Oil differential interference contrast (DIC) objective or 40×/0.95 Plan-Apochromat phase contrast (Korr Ph3 M27) objective with a Zeiss Axioimager Z.1 microscope (Carl Zeiss, Oberkochen, Germany). Fluorescence of Alexa488-labelled OVA was obtained by using a 470/40 nm band pass (BP) excitation filter with a beam splitter at 495 nm and a 525/50 nm BP emission filter. TPCS2a fluorescence was obtained by using a 395-440 nm BP excitation filter with a beam splitter at 460 nm, and a 620 nm long pass filter. Micrographs were recorded with a digital AxioCam MRm camera and processed and analysed by use of the Axiovision Software (Carl Zeiss).

Data set [1] relates to SIINFEKL-specific CD8 T cells. Description: PCI immunisation of OT-I-spiked mice, SIINFEKL pentamer flow cytometry (Example 2). The format is in vivo, C57BL/6 mice. The following applies: TPCS2a at 10, 25, 50, 100 and 250 μg; data not shown. How it is done: One day prior to the immunisation, spleens and lymph nodes were isolated from female OT-1 mice, and erythrocytes were removed by lysis (RBC Lysing Buffer Hybri-Max from Sigma-Aldrich) from the homogenised cell suspensions. The remaining cells were washed in PBS, filtered through 70 micron nylon strainers, and 2×10^6 OT-1 cells were administered by intravenous injection into recipient female C57BLJ6 mice; the adoptive transfer of SIINFEKL-specific CD8 T cells facilitates monitoring of the immune response by flow cytometry. One day or 8 hours later, mice were bled by tail bleeding, and the blood was collected in heparin-containing tubes for analysis of the baseline frequency of OVA-specific CD8 T cells.
(§1) Then, the mice were shaved on the abdominal area, and the vaccines, consisting of OVA or of a mixture of OVA and TPCS2a, were injected intradermally using syringes with 29G needles. The vaccines were kept light protected and used within 60 minutes of preparation. The vaccines were given in two injections of 50 μl each, on the left and right side of the abdominal mid line. OVA was tested at 10 to 100 μg per dose. The TPCS2a dose was 7.5 to 250 μg.
(§2) On day 0, prior to vaccination and on various days thereafter (e.g. day 6, 7, 8, 9, 14, 23, as indicated) mice were bled by tail bleeding and erythrocytes were removed by lysis, before analysis of antigen-specific CD8 T cells by flow cytometry. At the end of the experiment (typically 11, 12, 14 or 23 days), the mice were euthanized and the splenocytes analysed ex vivo. At various time points after the TPCS2a injection (0-48 hours), the mice were anaesthetised by intraperitoneal injection of a mixture of ketamine (25 mg/kg body weight) and xylazin (4 mg/kg) and placed on a light source (for illumination and activation of the photosensitiser TPCS2a). The light dose was 6 minutes, if not otherwise stated. The whole procedure is illustrated in the scheme of FIG. 6A. The illumination of mice using LumiSource™ is imaged in FIG. 6B.
The frequency of OVA-specific CD8 T-cells in blood was monitored by staining the cells with anti-CD8 antibody and H-2K^b/SIINFEKL ProS pentamer (Proimmune, Oxford, UK) for analysis by flow cytometry. The activation status of the cells was further analysed by testing the expression of CD44 and CD69 by flow cytometry. Intracellular staining for IFN-γ was done after overnight stimulation of splenocytes in 24-well plates with the CD8 epitope OVA257-264 (SIINFEKL) at 37 ° C. Brefeldin A was added during the last 4 hours. The cells were then washed and fixed with 4% formaldehyde in PBS for 10 min on ice. Anti-CD16/32 was added to block unspecific binding to Fc receptors. The cells were then permeabilised with 0.1% NP40 in PBS for 3 min and washed before staining with anti-IFN-γ, anti-CD8 and ant-CD44 antibodies (eBioscience or BD Pharmingen). The cells were acquired using FACSCanto (BD Biosciences, San Jose, USA) and analysed using FlowJo 8.5.2 software (Tree Star, Inc., Ashland, Oreg.).

The test system of another data set is J774 cells. Nature of the data set: Live cell fluorescence microscopy of J774 cells. It counts as cell-based, mouse. Particulars: for cellular uptake and distribution of Alexa488-labelled OVA: with or without parallel PCI treatment, FIG. 9A. How it is done: Fifty thousand J774.1 cells (ATCC no. TIB-67 mouse monocyte macrophage cell line) were seeded out on no. 1.5 glass coverslips (Glasswarenfabrik Karl Hecht KG, Sondheim, Germany) in 4-well plates overnight. The cells were incubated with 0.05 or 1,0 μg/ml TPCS2a for 18 hours and washed three times in drug-free culture medium prior to incubation with 25 μg/ml OVA-Alexa488 for four hours. Cells were subsequently washed in ice-cold PBS with Ca^2+ and Mg^2+ prior to microscopy. Images of cellular localization and PCI-induced cytosolic release of OVA was obtained by epi-fluorescence microscopy using a Plan-Apochromat 63×/1.40 Oil differential interference contrast (DIC) objective or 40×/0.95 Plan-Apochromat phase contrast (Korr Ph3 M27) objective with a Zeiss Axioimager Z.1 microscope (Carl Zeiss, Oberkochen, Germany). Fluorescence of Alexa488-labelled OVA was obtained by using a 470/40 nm band pass (BP) excitation filter with a beam splitter at 495 nm and a 525/50 nm BP emission filter. TPCS2a fluorescence was obtained by using a 395-440 nm BP excitation filter with a beam splitter at 460 nm, and a 620 nm long pass filter. Micrographs were recorded with a digital AxioCam MRm camera and processed and analysed by use of the Axiovision Software (Carl Zeiss).

Data set [2] is described as follows: Local reaction at the illuminated injection site (Example 2). The format is in vivo, C57BL/6 mice. Particulars: higher TPCS2a doses; days 1-3 after illumination; data not shown. Here is the method:
as §1, §2

Regarding “tetraphenyl chlorin disulfonate [TPCS2a]”, in the data set on bone marrow DCs (before light, FIG. 5A), the “localisation of antigen and photosensitiser” value was “co-localisation of antigen and photosensitiser in DC endosomes”. The “antigen distribution after light activation” value with bone marrow DCs (FIG. 5B) was “release of the antigen into the cytosol could be observed over 15 minutes”. Moreover, the “OVA-specific immune response with increasing TPCS2a dose” value in data set [1] is reported as “increased the measured OVA-specific immune response”. Moreover, the “relative localisation of antigen and TPCS2a after light activation” value in the data set with J774 cells (FIG. 9B) is reported as “co-localised”. For the same substance, in the data set with J774 cells, the “cellular uptake and distribution of Alexa488-labelled OVA” value is reported as “diffuse green fluorescence”. Further, the “local inflammation after illumination” value in data set [2] is “more local inflammation with transient erythema”.

Turning to “Alexa488-labelled OVA: Alexa488-labelled OVA protein for fluorescence microscopy”, the “cellular uptake and distribution of Alexa488-labelled OVA” value with J774 cells is on record as “located close to the cell surface in concise spherical shaped bodies”.
